US20190119348A1, “PARATHYROID HORMONE RECEPTOR 1 ANTAGONIST AND INVERSE AGONIST POLYPEPTIDES AND METHODS OF THEIR USE” (The General Hospital Corporation, priority 2016, published 2019)
Where a SMILES comes first, the peptide text is derived from it. [ ]: non-standard residue; d: D form. Nle = CCCC[C@H](N)C(=O)O

Target: T1, human PTHR1-H223R (Homo sapiens, UniProt Q03431, H223R)
T1 construct: expressed in transfected cells; host or cells: GHR-10 (HEK-293 stably expressing GloSensor and PTHR1-H223R)
T1 sequence (Q03431 27-593 H223R): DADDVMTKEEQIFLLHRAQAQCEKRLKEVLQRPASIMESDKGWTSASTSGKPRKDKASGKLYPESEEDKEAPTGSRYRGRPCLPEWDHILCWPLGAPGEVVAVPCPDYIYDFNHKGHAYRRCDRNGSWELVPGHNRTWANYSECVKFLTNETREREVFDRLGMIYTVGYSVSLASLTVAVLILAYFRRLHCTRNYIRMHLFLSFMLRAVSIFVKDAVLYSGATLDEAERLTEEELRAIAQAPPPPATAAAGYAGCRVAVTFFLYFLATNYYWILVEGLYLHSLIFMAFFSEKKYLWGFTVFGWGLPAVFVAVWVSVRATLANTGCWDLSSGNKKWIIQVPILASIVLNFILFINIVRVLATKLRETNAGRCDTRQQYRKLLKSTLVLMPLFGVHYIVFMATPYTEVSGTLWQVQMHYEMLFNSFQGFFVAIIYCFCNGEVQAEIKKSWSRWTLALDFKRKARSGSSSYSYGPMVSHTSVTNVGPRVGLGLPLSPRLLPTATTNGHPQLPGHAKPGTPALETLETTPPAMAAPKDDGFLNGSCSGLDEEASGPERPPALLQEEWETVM
Test: Inverse agonism on basal cAMP signaling in GHR-10 cells
Type: cell-based
Conditions: for inverse agonist properties on constitutively active PTHR1-H223R (basal cAMP): GHR-10 cells (HEK293/GloSensor); for Reduction of basal cAMP, % vehicle, After ligand washout / Reduction of basal cAMP, % vehicle, Ligand @ −6M: GHR-10 cells, from AUC, representative experiment; for Reduction of basal cAMP, % vehicle, After ligand washout: 26 minutes after washout of unbound ligand; for Reduction of basal cAMP, % vehicle, Ligand @ −6M: peptide 1×10^−6 M for 24 minutes
Method: cAMP signaling was assessed in the HEK293-derived or SaOS2-derived cell lines stably expressing the luciferase-based GloSensor™ cAMP reporter (Hattersley et al., Paper presented at: Novel Signaling Mechanisms and Bone Cell Biology 2014; Binkowski et al., Methods in molecular biology. 756:263-271). HEK-293 cells were further transfected to stably express the hPTHR1, hPTHR1-H223R, or hPTHR1-T410P. The cells were seeded into 96-well white plates and were assayed 24 to 48 hours post-confluency. Assays were performed at room temperature in CO2-independent culture media (Life Technologies, Corp., Carlsbad, Calif.) containing 0.1% BSA (CIDB). The cells were pre-loaded with luciferin (0.5 mM in CIDB) for 15 minutes, then PTH peptides were added at varying concentrations. cAMP-dependent luminescence was measured at two-minute intervals using a PerkinElmer Envision plate reader. The time at which maximum luminescence (cps) observed with agonist alone, typically at 10-20 minutes after agonist addition, was used to obtain data from wells containing antagonist with or without agonist, to thus generate antagonist ligand dose-response curves. The resulting cps values were then plotted against ligand concentration using GraphPad Prism 7.0 software and a four-parameter logistics curve fitting equation, which yielded parameters of inhibitory potency (pIC50).
These experiments were performed in HEK-293 cells stably transfected to express the GloSensor™ cAMP reporter along with a constitutively active mutant human PTHR1. The HEK-293 cells stably expressing GloSensor™ cAMP reporter along with a constitutively active mutant human PTHR1-H223R are GHR-10 cells. The HEK-293 cells stably expressing GloSensor™ cAMP reporter along with a constitutively active mutant human PTHR1-T410P are GTP-4 cells. The HEK-293 cells stably expressing GloSensor™ cAMP reporter along with a WT-PTHR1 are GP-2.3 cells. GP-2.3 cells were used as control. […] Effects on basal cAMP signaling over time were assessed during periods of direct ligand addition (FIGS. 15A-15F). The measurements were performed by recording GloSensor™ luminescence as counts per second (cps) using a PerkinElmer Envision plate reader. The data are illustrated in FIGS. 15A-15F. Data are from triplicate wells (means±SEM) of a single experiment representative of two others.
Persistence of the antagonist/inverse agonist effects (prolonged action) as follows. Effects of eight peptides on basal and PTH(1-34)-stimulated cAMP signaling by PTHR-H223R were assessed in GHR-10 cells (HEK-293-derived cells stably expressing glosensor cAMP reporter and PTHR1-H223R). Time courses of changes in cAMP levels were recorded in three consecutive phases:
1) after initial addition of a candidate antagonist/inverse agonist (1×10^−6 M-1×10^−9 M) to cells pre-loaded for […] with luciferin (left column);
2) after removal of unbound inverse agonist by extensive wash-out with buffer and replenishment with fresh luciferin-containing buffer (middle column); and
Control wells were treated with vehicle. GloSensor™ luminescence, as counts per second (cps), was recorded using a PerkinElmer Envision plate reader. Data are from duplicate wells (means±SEM) of a single experiment representative of two others. The results are illustrated in Table 7 and in FIGS. 16A-16C, 17A-17C, 18A-18C, 19A-19C, 20A-20C, 21A-21C, 22A-22C, and 23A-23C.
GHR10 cells were treated with vehicle or vehicle containing the indicated peptide for 24 minutes and cAMP-dependent luminescence was recorded at two-minute intervals. The cells were then washed to remove unbound ligand and media containing fresh luciferin was added, and cAMP luminescence was recorded for another 26 minutes. Percentage reduction was calculated from the area-under-the-curve (AUC) values derived from the time course plots using the equation: […]

SMILES | inverse agonist properties on constitutively active PTHR1-H223R (basal cAMP) | Reduction of basal cAMP, % vehicle, After ligand washout | Reduction of basal cAMP, % vehicle, Ligand @ −6M
CC[C@H](C)[C@H](N)C(=O)N[C@@H](CCC(N)=O)C(=O)N[C@@H](CC(C)C)C(=O)N[C@@H](CCSC)C(=O)N[C@@H](Cc1c[nH]cn1)C(=O)N[C@@H](CCC(N)=O)C(=O)N[C@@H](CCCNC(=N)N)C(=O)N[C@H](Cc1c[nH]c2ccccc12)C(=O)N[C@@H](CCCCN)C(=O)N[C@@H](Cc1c[nH]c2ccccc12)C(=O)N[C@H](C(=O)N[C@@H](CCC(N)=O)C(=O)N[C@@H](CC(=O)O)C(=O)N[C@@H](C)C(=O)N[C@@H](CCCNC(=N)N)C(=O)N[C@@H](CCCNC(=N)N)C(=O)N[C@@H](CCCNC(=N)N)C(=O)N[C@@H](C)C(=O)N[C@@H](Cc1c[nH]c2ccccc12)C(=O)N[C@@H](CC(C)C)C(=O)N[C@@H](Cc1c[nH]cn1)C(=O)N[C@@H](CCCCN)C(=O)N[C@@H](CC(C)C)C(=O)N[C@H](C(=O)N[C@@H](C)C(=O)N[C@@H](CCC(=O)O)C(=O)N[C@H](C(=O)N[C@@H](Cc1c[nH]cn1)C(=O)N[C@H](C(=O)N[C@@H](C)C(=O)N[C@@H](CCC(=O)O)C(=O)N[C@H](C(N)=O)[C@@H](C)CC)[C@@H](C)O)[C@@H](C)CC)[C@@H](C)CC)[C@@H](C)CC [compound 1949, dW12, W23-LA-PTH(5-36)] (H-IQLMHQR[dW]KWIQDARRRAWLHKLIAEIHTAEI-NH2; N-terminus assumed) | exhibited inverse agonist properties | 30 % vehicle | 41 % vehicle
CCCC[C@H](NC(=O)[C@@H](N)CC(C)C)C(=O)N[C@@H](Cc1c[nH]cn1)C(=O)N[C@@H](CCC(N)=O)C(=O)N[C@@H](CCCNC(=N)N)C(=O)N[C@H](Cc1c[nH]c2ccccc12)C(=O)N[C@@H](CCCCN)C(=O)N[C@@H](Cc1c[nH]c2ccccc12)C(=O)N[C@H](C(=O)N[C@@H](CCC(N)=O)C(=O)N[C@@H](CC(=O)O)C(=O)N[C@@H](C)C(=O)N[C@@H](CCCNC(=N)N)C(=O)N[C@@H](CCCNC(=N)N)C(=O)N[C@@H](CCCNC(=N)N)C(=O)N[C@@H](C)C(=O)N[C@@H](Cc1c[nH]c2ccccc12)C(=O)N[C@@H](CC(C)C)C(=O)N[C@@H](Cc1c[nH]cn1)C(=O)N[C@@H](CCCCN)C(=O)N[C@@H](CC(C)C)C(=O)N[C@H](C(=O)N[C@@H](C)C(=O)N[C@@H](CCC(=O)O)C(=O)N[C@H](C(=O)N[C@@H](Cc1c[nH]cn1)C(=O)N[C@H](C(=O)N[C@@H](C)C(=O)N[C@@H](CCC(=O)O)C(=O)N[C@H](C(N)=O)[C@@H](C)CC)[C@@H](C)O)[C@@H](C)CC)[C@@H](C)CC)[C@@H](C)CC [compound 1992, Nle8, dW12, W23-LA-PTH(7-36)-1992] (H-L[Nle]HQR[dW]KWIQDARRRAWLHKLIAEIHTAEI-NH2; N-terminus assumed) | inverse agonist response | 40 % vehicle | 51 % vehicle
